One assay concerns H322 NSCLC cells. In words: Proliferation assay (Cell Titer-Glo) with anti-IGFR1 antibody and a chemotherapeutic agent, H322 NSCLC cells. Format: cell-based, human. The settings on record: H322, Day4, replicates. As for the experimental part:
The ability of cells in culture to proliferate when exposed to varying concentrations of the 19D12/15H12 wild-type or 19D12/15H12 LCF/HCA anti-IGFR1 antibody and either paclitaxel, gefitinib, lonafarnib 4-hydroxy tamoxifen or doxorubicin was evaluated in this example.
Cell Preparation. […] The cells were trypsinized, counted and resuspended at a concentration of 25000 cells/ml in 10% HI-FBS (heat-inactivated fetal bovine serum) RPMI medium containing NEAA (non-essential amino acids), L-Glu, MEM Vitamins and PS. 100 ul of cell suspension (2500 cells) was added to each well of a BD Falcon 96 well black, clear bottom TC treated plate. The cells were allowed to attach and spread overnight at 37° C. The 10% RPMI solution was replaced with 100 μl RPMI containing 2% HI-FBS containing NEAA, L-Glu, MEM Vitamins and PS.
Solution Preparation. All assay reagents were prepared in RPMI containing 2% HI-FBS at 20× concentration and serial diluted for a total of 10 test concentrations per treatment. Every test point was prepared in triplicate on separate assay plates.
Reagent 1 and 19D12/15H12 or 19D12/15H12 LCF/HCA were set up individually as dose responses as well as in combination with each other. Cell proliferation was measured on Day4.
Assay. Cell proliferation was measured using the Promega Cell Titer-Glo Luminescent Cell Viability Assay (Promega Corp.; Madison, Wis.). This assay provided a method for determining the number of viable cells in culture based on quantitation of ATP in the culture, which indicates the presence of metabolically active cells.
The assay reagents and assay plates were equilibrated to room temperature and prepared immediately before addition to the assay plates. One volume of assay reagent was added to each well of the assay plate and shaken on an orbital platform for at least ten minutes to allow for equilibration of the ATP reaction and to ensure total lysis of all cells in the assay plate. […] Luminescence was detected on Wallac 420 Plate Reader with stacker.
The units in the tables (proliferation index) are arbitrary and are proportional to the number of viable cells observed in the culture under each respective condition.
In Tables 2-6, “ug” indicates micrograms and “uM” indicates micromolar.

The next assay relates to H322 human NSCLC cells. In words: In vivo tumor inhibition assay, NSCLC xenograft model H322. Details: species or system nude mice. The settings on record: for Growth: Day 0 to 31. As for the experimental part: Five million H322 human NSCLC cells in Matrigel were inoculated subcutaneously into nude mice. Anti-IGFR antibody 19D12 and/or paclitaxel treatment was initiated when the tumor size reached ˜105-115 mm^3 at day 0. Both 19D12 and paclitaxel were dosed twice per week. Anti-IGFR antibody 19D12 was dosed at 0.5 mg per mouse. Paclitaxel was at 15 mpk. Ten animals per group. Tumor volumes were measured by Labcat.

The mark [1] stands for this setting: Day 0 (treatment start), H322 xenograft in nude mice.
Where [2] appears, read: 19D12 0.5 mg per mouse and/or Taxol 15 mpk, twice per week.
Where [3] appears, read: Day 31, 19D12 0.5 mg per mouse and/or Taxol 15 mpk, twice per week.

Where “and” joins values, the source holds several entries; their conditions need not be identical. Identical values can stand only once.

In the case of `COc1cc2ncnc(Nc3ccc(F)c(Cl)c3)c2cc1OCCCN1CCOCC1` [Iressa, 4-(3-chloro-4-fluoroanilino)-7-methoxy-6-(3-morpholinopropoxy)quinazoline], the proliferation index in the assay with H322 NSCLC cells (Iressa alone 0.0512 nM) was 59448 and 76032 and 61018 and 59690 and 63252 and 63688 and 60730 and 74464 and 65802; in the assay with H322 NSCLC cells (Iressa alone 0.256 nM), 56752 and 73246 and 58760 and 59474 and 57314 and 58384 and 59448 and 66806 and 64854; in the assay on H322 NSCLC cells (Iressa alone 32 nM), 45712 and 58272 and 41264 and 40992 and 44162 and 42054 and 43124 and 45062 and 41426; in the assay on H322 NSCLC cells (Iressa alone 160 nM) it was 35044 and 43832 and 32072 and 32728 and 33532 and 35078 and 34864 and 36144 and 34946; with H322 NSCLC cells (Iressa alone 4000 nM), 27738 and 27810 and 24546 and 24376 and 26742 and 28156 and 24528 and 28442 and 27026; with H322 NSCLC cells (Iressa alone 20000 nM), 10818 and 11294 and 10994 and 9734.
Take `CC(=O)O[C@H]1C(=O)[C@@]2(C)[C@H]([C@H](OC(=O)c3ccccc3)[C@]3(O)C[C@H](OC(=O)[C@H](O)[C@@H](NC(=O)c4ccccc4)c4ccccc4)C(C)=C1C3(C)C)[C@]1(OC(C)=O)CO[C@@H]1C[C@@H]2O` [Taxol, paclitaxel]: the tumor volume in the assay with H322 human NSCLC cells (setting [1]) was 109.54 mm3; with H322 human NSCLC cells (setting [3]), 214.25 mm3. This molecule also registered a Growth in the assay on H322 human NSCLC cells (setting [2]) of 104.71. Besides, the “% inhibition (tumor growth inhibition)” value in the assay with H322 human NSCLC cells (setting [3]) was determined as 52%. Besides, the proliferation index in the assay on H322 NSCLC cells (Taxol alone 0.00256 ng/mL) was 72498 and 78070 and 89290 and 71662 and 72122 and 77618 and 81720 and 80172 and 76744; in the assay with H322 NSCLC cells (Taxol alone 0.064 ng/mL) it was 75374 and 83082 and 74926 and 73584 and 75710 and 75356 and 87602 and 75690 and 76350; in the assay on H322 NSCLC cells (Taxol alone 8 ng/mL) it was 38354 and 33654 and 34598 and 31556 and 36038 and 35906 and 34498 and 53256 and 41418; with H322 NSCLC cells (Taxol alone 40 ng/mL), 22160 and 25204 and 22624 and 22020 and 22956 and 24152 and 23908 and 24834 and 22462; with H322 NSCLC cells (Taxol alone 200 ng/mL) it was 19372 and 23650 and 23668 and 23164 and 23482 and 24314 and 25752 and 23960 and 21420; in the assay on H322 NSCLC cells (Taxol alone 1000 ng/mL), 20932 and 26882 and 24582 and 23884 and 23712 and 25890 and 24522 and 24842 and 20306.

B1: 19D12/15H12 LCF/HCA: monoclonal, fully-human anti-IGFR1 antibody: mature light chain F (SEQ ID NO: 2) paired with mature heavy chain A (SEQ ID NO: 4) (antibody, listed as Homo sapiens, V domains shown)
VH: MEFGLSWVFLVAILKGVQCEVQLVQSGGGLVKPGGSLRLSCAASGFTFSSFAMHWVRQAPGKGLEWISVIDTRGATYYADSVKGRFTISRDNAKNSLYLQMNSLRAEDTAVYYCARLGNFYYGMDVWGQGTTVTVSS
VL: MSPSQLIGFLLLWVPASRGEIVLTQSPGTLSVSPGERATLSCRASQSIGSSLHWYQQKPGQAPRLLIKYASQSLSGIPDRFSGSGSGTDFTLTISRLEPEDFAVYYCHQSSRLPHTFGQGTKVEIKRT
Consider B1, for which the proliferation index in the assay with H322 NSCLC cells (antibody alone 0.000256 nM (Table 2 plates)) is 73420 and 74154 and 83338 and 74108 and 84234 and 83206 and 80894 and 82674 and 71784; in the assay on H322 NSCLC cells (antibody alone 0.0064 nM (Table 2 plates)), 61654 and 79014 and 72998 and 69060 and 64818 and 74862 and 76374 and 68206 and 70226; in the assay on H322 NSCLC cells (antibody alone 0.8 nM (Table 2 plates)), 40944 and 47470 and 52010 and 49636 and 55228 and 53706 and 56984 and 49396 and 47080; in the assay on H322 NSCLC cells (antibody alone 0.8 nM (Table 3 plates)), 49206; in the assay on H322 NSCLC cells (antibody alone 4 nM (Table 2 plates)), 42312 and 48884 and 49992 and 50508 and 47256 and 56998 and 54966 and 51438 and 44700; in the assay on H322 NSCLC cells (antibody alone 20 nM (Table 2 plates)), 44120 and 55106 and 50680 and 49038 and 56114 and 52446 and 51826 and 52490 and 48302. Further, the proliferation index in the assay with H322 NSCLC cells (antibody alone 20 nM (Table 3 plates)) is 51960 and 58598 and 48444 and 49156 and 51020 and 48730 and 49684 and 45064 and 52120; with H322 NSCLC cells (antibody alone 5.12E−05 nM (Table 2 plates)), 74408 and 87030 and 83636 and 79810 and 79650 and 90294 and 88940 and 86762 and 74996.

B2: 19D12: Anti-IGFR antibody 19D12 (antibody, listed as Homo sapiens, V domains shown)
VL: B1 VL
VH: B1 VH
In the assay on H322 human NSCLC cells (setting [1]), B2 showed a tumor volume of 106.57 mm3. Further, the Growth in the assay with H322 human NSCLC cells (setting [2]) was 66.45. Also, in the assay with H322 human NSCLC cells (setting [3]), the “% inhibition (tumor growth inhibition)” value worked out at 75.50% and the tumor volume was found to be 173.02 mm3.

The values are drawn from US8017735B2, “Anti-IGFR1 antibody therapeutic combinations” (Schering Corporation, priority 2003, dated 2011).
